Assay results as given in publication PMC10202811 (Nature Medicine, 2023).
Values joined by “and” are separate entries in the source; they are usually repeats but may differ in a detail not shown here. Identical values can stand only once. “Also recorded” adds a separate entry of the source.

Columns and labels:
[1] = test system: ALK-driven refractory or relapsed neuroblastoma; experiment: Soft tissue response by RECIST; type: in vivo, human
Text: Patients underwent disease staging at baseline, after courses 2 and 4 and then every four courses thereafter. The primary endpoint for response analysis is the BOR, defined as the best response observed before progression or start of another therapy. […] Response was graded according to the NANT response criteria version 2.0 (ref. [26]), modified from the International Neuroblastoma Response Criteria (INRC)[48]. NANT response criteria use three components for assessment of overall response: soft tissue response assessed by anatomical imaging and avidity on MIBG or FDG-PET; bone response assessed by uptake in bone by MIBG or bone involvement on FDG-PET; and bone marrow response assessed by morphology on bilateral aspirates and biopsies. Each response component (soft tissue, bone and bone marrow) are graded as CR, PR, SD and PD. Overall response grading is defined as: CR, if a response of CR in all components that are involved at baseline; PR, if a response of PR or better in all involved components; MR, if a response of PR or better but with at least one involved component as SD and no PD in all involved components; SD, if a response of SD in all involved components; and PD, if a response of PD in at least one involved component. The overall response definitions are identical to overall responses (CR, PR, SD and PD) as defined by the INRC. Response assessment is initially performed by sites and reviewed against source documents by NANT operations. Additional blinded central review of all radiological or pathological data was conducted for patients with overall PR or better and, in addition, radiologic pathological data of all involved sites for patients with MR to assign the final BOR on this study. Response by MIBG was determined using the Curie criteria. RR was determined as the proportion of patients with BOR of CR and PR in each cohort. […]

[2] = test system: ALK-driven refractory or relapsed neuroblastoma; experiment: Progression-free survival and overall survival (Kaplan-Meier) by cohort; type: in vivo, human; conditions: individual patients (PID); for PFS status: source data of Figure 3; for PFS time, years since on study: time is censored where PFS status is No event; for OS time, years since on study: time is censored where vital status is Alive
Text: Supplement 41591_2023_2297_MOESM8_ESM.xlsx, sheet "Figure 3" | column: PFS status; PFS time, years since on study; Vital status; OS time, years since on study

Question: C[C@H]1Oc2cc(cnc2N)-c2c(nn(C)c2C#N)CN(C)C(=O)c2ccc(F)cc21 [Lorlatinib, (10R)-7-amino-12-fluoro-2,10,16-trimethyl-15-oxo-10,15,16,17-tetrahydro-2H-8,4-(metheno)pyrazolo[4,3-h][2,5,11]-benzoxadiazacyclotetradecine-3-carbonitrile] was tested. Which “Soft tissue % change from baseline” value ([1]; Cohort A1, individual patient) did it give?
Answer: 1% and -3.77% and -4% and -7% and -17% and -21% and -29% and -36% and -41% and -50% and -63% and -70% and -100% and 200% and 121% and 100% and 61% and 20% and 6%

Question: What about the “Soft tissue % change from baseline” value ([1]; Cohort A2, individual patient) of the same molecule?
Answer: 1% and -11% and -23% and -27% and -28% and -30% and -41% and -68%

Question: And the “Soft tissue % change from baseline” value ([1]; Cohort B2, individual patient)?
Answer: 1% and -9% and -12% and -45%

Question: What about the Vital status ([2]; cohort A1) of the same molecule?
Answer: Alive; also recorded: Deceased

Question: What about the PFS status ([2]; cohort A1) of the same molecule?
Answer: No event; also recorded: Relapsed/Deceased

Question: And the “PFS time, years since on study” value ([2]; cohort A1)?
Answer: 3.67 years and 0.13 years and 2.37 years and 0.10 years and 1.50 years and 0.08 years and 3.43 years and 0.31 years and 0.0657 years and 1.07 years and 1.17 years and 0.15 years and 0.30 years and 4.15 years and 0.28 years and 0.11 years and 0.16 years

Question: What about the “OS time, years since on study” value ([2]; cohort A1) of the same molecule?
Answer: 3.67 years and 0.74 years and 3.43 years and 0.10 years and 1.50 years and 0.40 years and 0.36 years and 0.32 years and 0.39 years and 0.16 years and 2.28 years and 1.68 years and 0.20 years and 1.46 years and 1.11 years and 0.48 years and 0.56 years and 0.37 years and 4.15 years and 0.65 years and 0.63 years

Question: And the Vital status ([2]; cohort A2)?
Answer: Alive; also recorded: Deceased

Question: What about the PFS status ([2]; cohort A2) of the same molecule?
Answer: No event; also recorded: Relapsed/Deceased

Question: And the “PFS time, years since on study” value ([2]; cohort A2)?
Answer: 4.39 years and 0.15 years and 0.82 years and 1.03 years and 0.80 years and 2.07 years and 0.89 years and 0.77 years and 0.32 years and 2.48 years and 2.24 years and 1.46 years and 1.34 years and 0.93 years and 0.73 years

Question: What about the “OS time, years since on study” value ([2]; cohort A2) of the same molecule?
Answer: 4.39 years and 0.51 years and 1.86 years and 1.14 years and 1.78 years and 3.47 years and 0.89 years and 1.27 years and 1.10 years and 2.48 years and 2.24 years and 1.46 years and 1.34 years and 0.93 years and 0.73 years

Question: And the Vital status ([2]; cohort B2)?
Answer: Deceased; also recorded: Alive

Question: What about the PFS status ([2]; cohort B2) of the same molecule?
Answer: Relapsed/Deceased; also recorded: No event

Question: And the “PFS time, years since on study” value ([2]; cohort B2)?
Answer: 0.50 years and 0.66 years and 0.13 years and 0.45 years and 1.28 years and 0.06 years and 0.44 years and 0.70 years and 0.16 years

Question: And the “OS time, years since on study” value ([2]; cohort B2)?
Answer: 1.16 years and 0.66 years and 0.41 years and 0.79 years and 1.28 years and 0.22 years and 0.44 years and 0.70 years and 0.54 years
